Measured values reported in patent publication US8389557B2, “Triazole derivatives useful as Axl inhibitors” (Rigel Pharmaceuticals, Inc., priority 2005, dated 2013).
Structures can show the parent of a compound that is named as a salt.

Key:
Axl = biological target: T1, Axl (Homo sapiens, UniProt P30530); assay: Phospho-Akt in-cell Western assay (inhibition of Axl activity); assay type: cell-based
T1 construct: endogenous in cells; host or cells: HeLa cells
T1 sequence (P30530 26-894): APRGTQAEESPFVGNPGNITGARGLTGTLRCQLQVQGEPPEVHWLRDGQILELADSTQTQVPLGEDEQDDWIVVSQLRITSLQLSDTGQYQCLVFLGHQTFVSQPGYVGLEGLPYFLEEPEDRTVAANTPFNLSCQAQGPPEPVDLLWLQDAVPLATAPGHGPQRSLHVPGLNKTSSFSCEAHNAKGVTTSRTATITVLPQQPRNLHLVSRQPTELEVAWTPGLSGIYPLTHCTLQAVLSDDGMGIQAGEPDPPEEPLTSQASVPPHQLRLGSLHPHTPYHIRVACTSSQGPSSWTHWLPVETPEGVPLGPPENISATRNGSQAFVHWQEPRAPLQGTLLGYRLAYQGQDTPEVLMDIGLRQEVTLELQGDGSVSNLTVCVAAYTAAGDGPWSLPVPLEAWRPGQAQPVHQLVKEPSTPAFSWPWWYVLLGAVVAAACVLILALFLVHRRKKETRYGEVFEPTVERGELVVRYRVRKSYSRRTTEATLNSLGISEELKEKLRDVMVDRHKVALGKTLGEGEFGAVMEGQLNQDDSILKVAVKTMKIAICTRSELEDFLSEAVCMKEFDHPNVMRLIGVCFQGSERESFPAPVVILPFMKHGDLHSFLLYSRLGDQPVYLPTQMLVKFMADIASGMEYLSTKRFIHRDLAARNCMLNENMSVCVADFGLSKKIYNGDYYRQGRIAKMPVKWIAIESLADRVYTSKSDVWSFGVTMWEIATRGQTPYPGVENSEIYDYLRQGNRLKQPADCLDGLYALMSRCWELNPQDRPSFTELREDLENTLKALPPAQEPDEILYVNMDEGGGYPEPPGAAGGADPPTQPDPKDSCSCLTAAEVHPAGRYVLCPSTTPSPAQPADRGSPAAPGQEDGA
Procedure, shortened: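 HeLa cells on poly-L-lysine, starved 24 h in 0.5% FCS DMEM with Axl/Fc 500 ng/mL, pre-treated with compound 1 h at 37° C. Axl stimulated 5 min by anti-Axl/anti-mouse antibody cross-linking. Fixed cells probed with anti-phospho-Akt and HRP secondary, chemiluminescence read.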

[1] = inhibition of Axl activity, Table 1
[2] = Table 3, Hela cells, Axl antibody cross-linking stimulation, phospho-Akt chemiluminescence
[3] = inhibition of Axl activity, phospho-Akt in-cell Western assay, Table 1

Row | SMILES | IC50 (Axl; [3]) | also measured
1 | Nc1nc(Nc2cccc(OCCN3CCOCC3)c2)nn1C(=O)c1ccccc1 (as salt: salt) [(Ia-26), 5-amino-3-[3-[2-(morpholin-4-yl)ethoxy]phenylamino]-1-phenylcarbonyl-1H-1,2,4-triazole, hydrogen chloride salt] | – | melting point: 236.6 to 242.1 °C
2 | Cc1ccc(C(=O)n2nc(Nc3cccc(OCC#N)c3)nc2N)cc1 [(Ia-5), 5-amino-3-[3-(cyanomethoxy)phenylamino]-1-(4-(methyl)phenyl)carbonyl-1H-1,2,4-triazole] | – | melting point: 236 to 241 °C
3 | Cc1ccccc1C(=O)n1nc(Nc2cccc(OCC#N)c2)nc1N [(Ia-8), 5-amino-3-[3-(cyanomethoxy)phenylamino]-1-(2-(methyl)phenyl)carbonyl-1H-1,2,4-triazole] | – | melting point: 204.5 to 207.9 °C; IC50 (Axl; [1]): > 20000 nM
4 | Cc1cccc(C(=O)n2nc(Nc3cccc(OCC#N)c3)nc2N)c1 [(Ia-9), 5-amino-3-[3-(cyanomethoxy)phenylamino]-1-(3-(methyl)phenyl)carbonyl-1H-1,2,4-triazole] | – | melting point: 220 to 224.4 °C; IC50 (Axl; [1]): > 20000 nM
5 | CC(C)Oc1ccc(C(=O)n2nc(Nc3ccc(OCc4ccccc4)cc3)nc2N)cc1 [(Ia-10), 5-amino-3-[4-(benzyloxy)phenylamino]-1-(4-(iso-propoxy)phenyl)carbonyl-1H-1,2,4-triazole] | – | melting point: 79 to 81 °C; IC50 (Axl; [1]): > 20000 nM
6 | Nc1nc(Nc2ccc(OCCN3CCCC3)cc2)nn1C(=O)c1ccc2[nH]ccc2c1 [compound #3, 5-Amino-1-(1H-indol-5-yl)carbonyl-3-[4-[2-(pyrrolidin-1-yl)ethoxy]phenylamino]-1H-1,2,4-triazole] | – | IC50 (Axl; [2]): < 1000 nM
7 | Nc1nc(Nc2ccc(OCCN3CCCC3)cc2)nn1C(=O)c1ccc2cc[nH]c2c1 [compound #5, 5-Amino-1-(1H-indol-6-yl)carbonyl-3-[4-[2-(pyrrolidin-1-yl)ethoxy]phenylamino]-1H-1,2,4-triazole] | – | IC50 (Axl; [2]): < 1000 nM
8 | Nc1nc(Nc2ccc(OCCN3CCCC3)cc2)nn1C(=O)c1cc2ccccc2[nH]1 [compound #6, 5-Amino-1-(1H-indol-2-yl)carbonyl-3-[4-[2-(pyrrolidin-1-yl)ethoxy]phenylamino]-1H-1,2,4-triazole] | – | IC50 (Axl; [2]): < 1000 nM
9 | Nc1nc(Nc2ccc(OCCN3CCCC3)cc2)nn1C(=O)c1cccc(OC(F)(F)F)c1 [compound #7, 5-Amino-3-[4-[2-(pyrrolidin-1-yl)ethoxy]phenylamino]-1-(3-(trifluoromethoxy)phenyl)carbonyl-1H-1,2,4-triazole] | < 1000 nM | –
10 | Nc1nc(Nc2ccc(OCCN3CCCCC3)cc2)nn1C(=O)c1ccc2c(c1)OCO2 [compound #13, 5-Amino-1-(1,3-benzodioxol-5-yl)carbonyl-3-[4-[2-(piperidin-1-yl)ethoxy]phenylamino]-1H-1,2,4-triazole] | < 1000 nM | –
11 | COc1cccc(C(=O)n2nc(Nc3ccc(OCCN4CCCC4)cc3)nc2N)c1 [compound #14, 5-Amino-1-(3-methoxyphenyl)carbonyl-3-[4-[2-(pyrrolidin-1-yl)ethoxy]phenylamino]-1H-1,2,4-triazole] | < 1000 nM | –
12 | CC(C)(C)Oc1ccc(C(=O)n2nc(Nc3ccc(OCCCN4CCCC4)cc3)nc2N)cc1 [compound #15, 5-Amino-3-[4-[3-(pyrrolidin-1-yl)propoxy]phenylamino]-1-(4-(tert-butoxy)phenyl)carbonyl-1H-1,2,4-triazole] | < 1000 nM | –
13 | Nc1nc(Nc2ccc(OCCN3CCCC3)cc2)nn1C(=O)c1ccc2c(c1)OCO2 [compound #16, 5-Amino-1-(1,3-benzodioxol-5-yl)carbonyl-3-[4-[2-(pyrrolidin-1-yl)ethoxy]phenylamino]-1H-1,2,4-triazole] | < 1000 nM | –
14 | Nc1nc(Nc2ccc(OCCN3CCCC3)cc2)nn1C(=O)c1ccc2c(c1)OCCO2 [compound #17, 5-Amino-1-(1,4-benzodioxan-6-yl)carbonyl-3-[4-[2-(pyrrolidin-1-yl)ethoxy]phenylamino]-1H-1,2,4-triazole] | < 1000 nM | –
15 | CC(C)(C)Oc1cccc(C(=O)n2nc(Nc3ccc(OCCN4CCCC4)cc3)nc2N)c1 [compound #18, 5-Amino-3-[4-[2-(pyrrolidin-1-yl)ethoxy]phenylamino]-1-(3-(tert-butoxy)phenyl)carbonyl-1H-1,2,4-triazole] | < 1000 nM | –
16 | COc1cc(OC)cc(C(=O)n2nc(Nc3ccc(OCCN4CCCCC4)cc3)nc2N)c1 [compound #19, 5-Amino-1-(3,5-(dimethoxy)phenyl)carbonyl-3-[4-[2-(piperidin-1-yl)ethoxy]phenylamino]-1H-1,2,4-triazole] | < 1000 nM | –
17 | COc1ccc(C(=O)n2nc(Nc3ccc(OCCN4CCCCC4)cc3)nc2N)cc1OC [compound #21, 5-Amino-1-(3,4-(dimethoxy)phenyl)carbonyl-3-[4-[2-(piperidin-1-yl)ethoxy]phenylamino]-1H-1,2,4-triazole] | < 1000 nM | –
18 | COc1cc(OC)cc(C(=O)n2nc(Nc3ccc(OCCN4CCCC4)cc3)nc2N)c1 [compound #22, 5-Amino-1-(3,5-(dimethoxy)phenyl)carbonyl-3-[4-[2-(pyrrolidin-1-yl)ethoxy]phenylamino]-1H-1,2,4-triazole] | < 1000 nM | –
19 | CC(C)(C)Oc1cccc(C(=O)n2nc(Nc3ccc(OCCCN4CCCC4)cc3)nc2N)c1 [compound #24, 5-Amino-3-[4-[3-(pyrrolidin-1-yl)propoxy]phenylamino]-1-(3-(tert-butoxy)phenyl)carbonyl-1H-1,2,4-triazole] | < 1000 nM | –
20 | Nc1nc(Nc2ccc(OCCN3CCCC3)cc2)nn1C(=O)c1ccc2nc[nH]c2c1 [compound #25, 5-Amino-1-(benzimidazol-6-yl)carbonyl-3-[4-[2-(pyrrolidin-1-yl)ethoxy]phenylamino]-1H-1,2,4-triazole] | – | IC50 (Axl; [2]): 1000 to 10000 nM
21 | CC(C)Oc1ccc(C(=O)n2nc(Nc3ccc(N4CCCCC4)cc3)nc2N)cc1 [compound #26, 5-Amino-1-(4-(iso-propoxy)phenyl)carbonyl-3-[4-(piperidin-1-yl)phenylamino]-1H-1,2,4-triazole] | 1000 to 10000 nM | –
22 | Cc1ccc(C(=O)n2nc(Nc3ccc(OCCN4CCCC4)cc3)nc2N)cn1 [compound #28, 5-Amino-1-(6-(methyl)pyridin-3-yl)carbonyl-3-[4-[2-(pyrrolidin-1-yl)ethoxy]phenylamino]-1H-1,2,4-triazole] | – | IC50 (Axl; [2]): 1000 to 10000 nM

Continued, in another order:

Row | IC50 (Axl; [3]) | SMILES | also measured
23 | < 1000 nM | CN(C)c1ccc(C(=O)n2nc(Nc3ccc(OCCN4CCCC4)cc3)nc2N)cc1 [compound #4, 5-Amino-1-(4-(dimethylamino)phenyl)carbonyl-3-[4-[2-(pyrrolidin-1-yl)ethoxy]phenylamino]-1H-1,2,4-triazole] | –
24 | < 1000 nM | CN(C)c1ccc(C(=O)n2nc(Nc3ccc(OCCCN4CCCC4)cc3)nc2N)cc1 [compound #8, 5-Amino-1-(4-(dimethylamino)phenyl)carbonyl-3-[4-[3-(pyrrolidin-1-yl)propoxy]phenylamino]-1H-1,2,4-triazole] | –
25 | < 1000 nM | Cc1cccc(C(=O)n2nc(Nc3ccc(OCCN4CCCC4)cc3)nc2N)c1 [compound #9, 5-Amino-1-(3-methylphenyl)carbonyl-3-[4-[2-(pyrrolidin-1-yl)ethoxy]phenylamino]-1H-1,2,4-triazole] | –
26 | < 1000 nM | CC(C)Oc1ccc(C(=O)n2nc(Nc3ccc(OCCCN4CCCC4)cc3)nc2N)cc1 [compound #10, 5-Amino-1-(4-(iso-propoxy)phenyl)carbonyl-3-[4-[3-(pyrrolidin-1-yl)propoxy]phenylamino]-1H-1,2,4-triazole] | –
27 | < 1000 nM | CN(C)c1cccc(C(=O)n2nc(Nc3ccc(OCCN4CCCCC4)cc3)nc2N)c1 [compound #11, 5-Amino-1-(3-(dimethylamino)phenyl)carbonyl-3-[4-[2-(piperidin-1-yl)ethoxy]phenylamino]-1H-1,2,4-triazole] | –
28 | < 1000 nM | Cc1ccc(C(=O)n2nc(Nc3ccc(OCCN4CCCC4)cc3)nc2N)cc1 [compound #12, 5-Amino-1-(4-methylphenyl)carbonyl-3-[4-[2-(pyrrolidin-1-yl)ethoxy]phenylamino]-1H-1,2,4-triazole] | –
29 | < 1000 nM | CN(C)c1cccc(C(=O)n2nc(Nc3ccc(OCCCN4CCCC4)cc3)nc2N)c1 [compound #20, 5-Amino-1-(3-(dimethylamino)phenyl)carbonyl-3-[4-[3-(pyrrolidin-1-yl)propoxy]phenylamino]-1H-1,2,4-triazole] | –
30 | < 1000 nM | Nc1nc(Nc2ccc(OCCN3CCCC3)cc2)nn1C(=O)c1ccc(OC(F)(F)F)cc1 [compound #23, 5-Amino-3-[4-[2-(pyrrolidin-1-yl)ethoxy]phenylamino]-1-(4-(trifluoromethoxy)phenyl)carbonyl-1H-1,2,4-triazole] | –
